In patent US7732491B2, “Treatment of breast cancer with a PARP inhibitor alone or in combination with anti-tumor agents” (priority 2007, dated 2010):

Columns and labels:
[1] = tested on: MDA-MB-468 triple negative breast adenocarcinoma cell line; test: Cell cycle analysis (PI staining, flow cytometry); format: cell-based, human; design: G1 / S / G2/M: unit not given here
[2] = Lipophilicity; format: physicochemical
Source text: (§1) The person skilled in the art will recognize that BA may be administered in any pharmaceutically acceptable form. e.g. as a pharmaceutically acceptable salt, solvate, or complex. Additionally, as BA is capable of tautomerizing in solution, the tautomeric form of BA is intended to be embraced by the term BA (or the equivalent 4-iodo-3-nitrobenzamide), along with the salts, solvates or complexes. In some embodiments, BA may be administered in combination with a cyclodextrin, such as hydroxypropylbetacyclodextrin.

[3] = Tissue distribution / blood-brain barrier; conditions: in vivo
Source text: as §1
While not wishing to be bound by any particular theory, it is believed that BA achieves its anti-neoplastic effect by inhibiting the function of PARP. In some embodiments, BA can be used in the treatment of triple negative metastatic breast tumors. In some embodiments, BA can be used in the treatment of breast tumors in which at least one of ER, PR, and Her2 is negative. In some embodiments, BA can be used in the treatment of breast tumors in which at least two of ER, PR, and Her2 is negative, e.g. ER-negative, PR-negative, and Her-2 positive; or ER-positive, PR-negative, and Her-2 negative; or ER-negative, PR-positive, and Her-2 negative.

[4] = tested on: advanced breast tumors; test: Phase 1b open-label dose escalation study of BA with chemotherapeutic regimens; format: in vivo, human
[5] = in vivo; cited from earlier work
[6] = biological target: T1, PARP (Homo sapiens, UniProt P09874); test: PARP inhibition in peripheral mononuclear blood cells (PMBCs) from patients; format: in vivo
T1 construct: endogenous in cells; host or cells: peripheral blood mononuclear cells (PBMCs) from patients
T1 sequence (P09874 whole entry): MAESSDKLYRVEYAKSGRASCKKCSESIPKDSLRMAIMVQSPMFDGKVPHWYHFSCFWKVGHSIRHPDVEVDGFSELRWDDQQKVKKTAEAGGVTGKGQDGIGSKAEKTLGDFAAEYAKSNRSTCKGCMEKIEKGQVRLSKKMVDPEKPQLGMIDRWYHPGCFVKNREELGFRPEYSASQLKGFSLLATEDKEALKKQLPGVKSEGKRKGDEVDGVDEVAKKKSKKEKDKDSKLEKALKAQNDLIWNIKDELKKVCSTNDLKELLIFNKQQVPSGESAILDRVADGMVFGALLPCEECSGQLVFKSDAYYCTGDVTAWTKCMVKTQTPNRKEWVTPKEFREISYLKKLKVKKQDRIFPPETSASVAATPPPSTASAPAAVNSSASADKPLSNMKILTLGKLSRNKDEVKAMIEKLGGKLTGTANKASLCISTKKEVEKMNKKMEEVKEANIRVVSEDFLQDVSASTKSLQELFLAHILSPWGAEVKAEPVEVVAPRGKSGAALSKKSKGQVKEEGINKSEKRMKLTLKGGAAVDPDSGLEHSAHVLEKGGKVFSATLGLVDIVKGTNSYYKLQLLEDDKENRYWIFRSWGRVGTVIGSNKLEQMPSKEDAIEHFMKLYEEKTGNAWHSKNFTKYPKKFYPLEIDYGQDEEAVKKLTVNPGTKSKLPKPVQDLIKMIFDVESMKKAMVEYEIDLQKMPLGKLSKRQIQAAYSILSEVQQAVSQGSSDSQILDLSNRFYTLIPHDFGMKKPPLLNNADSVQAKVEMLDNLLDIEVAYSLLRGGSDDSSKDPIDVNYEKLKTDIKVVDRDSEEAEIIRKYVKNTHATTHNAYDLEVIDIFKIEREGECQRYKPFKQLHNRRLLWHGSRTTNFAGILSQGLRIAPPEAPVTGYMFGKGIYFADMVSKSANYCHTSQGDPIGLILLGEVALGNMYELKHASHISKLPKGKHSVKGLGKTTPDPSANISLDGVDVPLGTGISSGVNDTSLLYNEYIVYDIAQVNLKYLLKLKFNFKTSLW
Method: The functional activity of PARP before and after treatment of BA will be determined using a PARP activity assay in Peripheral Blood Mononuclear Cells (PBMCs). PBMCs will be prepared from 5 mL blood samples according to procedures described in detail in the study manual and PARP activity/inhibition will be measured.

[7] = tested on: MDA-MB-468 triple negative breast adenocarcinoma cell line; test: Vital cells, % control; format: cell-based, human
Method: (§2) Breast cancer cells are obtained from ATCC and cultured in Dulbecco Modified Eagle Medium with 10% fetal bovine serum. Cells are plated at 10^5 cells per P100 cell culture dish or at 10^4 cells per P60 cell culture dish in the presence of different concentrations compounds or DMSO control. Following treatment, the number of attached cells is measured using Coulter counter, and by staining with 1% methylene blue. Methylene blue is dissolved in 50%-50% mixture of Methanol and water. Cells are plated in 24- or 96-well plates and treated as planned, media are aspirated, cells are washed with PBS, fixed in methanol for 5-10 min, methanol is aspirated and plates are allowed to dry completely. Methylene blue solution is added to wells and plates are incubated for 5 min. Staining solution is removed and plates are washed with dH2O until washes are no longer blue. After plates are completely dry, a small amount of 1N HCl is added to each well to extract the methylene blue. The OD readout at 600 nm and a calibration curve are used to determine cell number.
After the addition of drugs and incubation, cells are trypsinized and aliquots of the samples are taken for counting and PI (Propidium Iodide) exclusion assay. One part of the cells is centrifuged and resuspended in 0.5 ml ice-cold PBS containing 5 μg/ml of PI. The other part of the cells is fixed in ice-cold 70% ethanol and stored in a freezer overnight. For cell cycle analysis, cells are stained with propidium iodide (PI) by standard procedures. Cellular DNA content is determined by flow cytometry using BD LSRII FACS, and the percentages of cells in G1, S or G2/M are determined using ModFit software.
as §2, with “min.” for “min,”
PI exclusion, cell cycle, TUNEL assays, and BrdU labeling assays are performed as described above in Example 2.

[8] = tested on: Bcr-abl; conditions: read-out: inhibits Bcr-abl phosphorylation, IC50; cited from earlier work
[9] = tested on: panel of 63 other kinases, including native c-Abl; conditions: cited from earlier work
[10] = prepared as directed (10 mg/ml); room temperature; cited from earlier work

What does the source list for `NC(=O)c1ccc(I)c([N+](=O)[O-])c1` [BA, 4-iodo-3-nitrobenzamide]?
effect on cell cycle arrest and antiproliferative effect of gamma irradiation ([1]; 3 gray of gamma irradiation with 100 μM of BA, FIG. 6): potentiates S- and G2/M cell cycle arrest and enhances the antiproliferative effect of gamma irradiation; effect on cell cycle arrest and cytotoxic effects induced by PPP ([1]; BA in combination with PPP): potentiates S- and G2/M cell cycle arrest and enhances cytotoxic effects; effect on cell cycle arrest and cytotoxic effects induced by carboplatin or gemcitabine ([1]; BA in combination with gemcitabine or carboplatin, FIG. 2): potentiates S- and G2/M cell cycle arrest and enhances cytotoxic effects; effect on cell cycle arrest and cytotoxic effects induced by irinotecan ([1]; BA in combination with irinotecan): potentiates S- and G2/M cell cycle arrest and enhances cytotoxic effects; G1 ([1]; Irinotecan 0 uM + BA 50 uM): 65.50; G2/M ([1]; Irinotecan 0 uM + BA 50 uM): 11.02; S ([1]; Irinotecan 0 uM + BA 50 uM): 23.48; G1 ([1]; Irinotecan 0 uM + BA 100 uM): 57.72; G2/M ([1]; Irinotecan 0 uM + BA 100 uM): 15.34; S ([1]; Irinotecan 0 uM + BA 100 uM): 26.93; G1 ([1]; PPP 0 nM + 201 50 uM): 50.20; G2/M ([1]; PPP 0 nM + 201 50 uM): 15.21; S ([1]; PPP 0 nM + 201 50 uM): 31.34; G1 ([1]; PPP 0 nM + 201 100 uM): 40.63; G2/M ([1]; PPP 0 nM + 201 100 uM): 20.16; S ([1]; PPP 0 nM + 201 100 uM): 34.52; lipophilicity [2]: very lipophilic; tissue distribution [3]: distributes rapidly and widely into tissues, including the brain and cerebrospinal fluid (CSF); subjects with evidence of stable disease for 2 cycles of treatment or more ([4]; BA in combination with chemotherapeutic regimens): Approximately 80%; tolerability of combination of BA with each cytotoxic regimen ([4]; with topotecan, gemcitabine, temozolomide, or carboplatin+paclitaxel): well tolerated; blood-brain barrier [5]: cross the blood-brain barrier; biologically relevant dose that elicits significant and sustained PARP inhibition ([6]; Phase 1b): 2.8 mg/kg; PARP inhibition in PBMCs from patients ([6]; after multiple dosing with BA doses of 2.8 mg/kg or higher, FIG. 3): significant and prolonged PARP inhibition; vital cells, % control ([7]; Irinotecan 0 uM + BA 50 uM): 91.5 % control; vital cells, % control ([7]; Irinotecan 0 uM + BA 100 uM): 67.5 % control; Vital Cell % control ([7]; PPP 0 nM + 201 50 uM): 82 % control; Vital Cell % control ([7]; PPP 0 nM + 201 100 uM): 61 % control

For `NC(=O)c1cccc(-c2cc(Nc3ccc(OC(F)(F)F)cc3)ncn2)c1` [GNF-2], which IC50 [8] is on record?
The IC50 was 267 nM.

And the “inhibition of a panel of 63 other kinases, including native c-Abl” value [9]?
Its value is “does not inhibit”.

For `CCc1c2c(nc3ccc(OC(=O)N4CCC(N5CCCCC5)CC4)cc13)-c1cc3c(c(=O)n1C2)COC(=O)[C@]3(O)CC` [Irinotecan, reference compound], which G1 ([1]; Irinotecan 5 uM + BA 0 uM) is on record?
Its G1 is 38.17.

And the G2/M ([1]; Irinotecan 5 uM + BA 0 uM)?
The G2/M was 28.05.

What about the S ([1]; Irinotecan 5 uM + BA 0 uM) of the same compound?
The S was 33.77.

And the “vital cells, % control” value ([7]; Irinotecan 5 uM + BA 0 uM)?
The value was 48.6 % control.

With `COc1cc([C@@H]2c3cc4c(cc3[C@H](O)[C@H]3COC(=O)[C@@H]23)OCO4)cc(OC)c1OC` [PPP, Picropodophyllin, reference compound] as the compound, how does the G1 ([1]; PPP 200 nM + 201 0 uM) read?
The G1 was 51.42.

What about the G2/M ([1]; PPP 200 nM + 201 0 uM) of the same compound?
The G2/M was 15.01.

And the S ([1]; PPP 200 nM + 201 0 uM)?
Its S is 30.22.

And the G1 ([1]; PPP 400 nM + 201 0 uM)?
Its G1 is 37.29.

What about the G2/M ([1]; PPP 400 nM + 201 0 uM) of the same compound?
The G2/M was 20.17.

What about the S ([1]; PPP 400 nM + 201 0 uM) of the same compound?
The S was 25.32.

And the “Vital Cell % control” value ([7]; PPP 200 nM + 201 0 uM)?
Its value is 89 % control.

What about the “Vital Cell % control” value ([7]; PPP 400 nM + 201 0 uM) of the same compound?
The value was 60 % control.

For `N.N.O=C([O-])C1(C(=O)[O-])CCC1.[Pt+2]` [carboplatin], which “stability of carboplatin solutions” value [10] is on record?
Its value is “eight”.
